Assays:
[1] = test system: Bcl-2; assay: Quantification of Bcl-2 (ELISA), MCF-7; assay type: cell-based, human; settings: MCF-7 cells; compared to untreated cells
Method: The intracellular content of Bcl-2 was quantified using the human Bcl-2 ELISA kit (Abcam, Cambridge, MA, USA). For the sample preparation, the cells were lysed with 1X lysis buffer. After 1 h of incubation at room temperature, the sample was spun at 1,000 g for 15 min and the supernatant was used for Bcl-2 measurement. Briefly, 80 μL of sample diluent and 20 μL of sample were added into the wells coated with monoclonal antibody to human Bcl-2, and after that the wells were washed twice with the wash buffer. Next, 50 μL of biotin-conjugate were added into the wells. After 2 h of incubation at room temperature on a microplate shaker, 100 μL of streptavidin-horseradish peroxidase were added. The sample was incubated again for 1 h at room temperature on a microplate shaker. The solution was withdrawn and the wells were washed with 3X wash buffer. Immediately, 100 μL of TMB substrate solution were added. Finally, 100 μL of stop solution were added into each well to stop the enzyme reaction. The absorbance was read using an ELISA reader at 450 and 620 nm wavelengths. Bcl-2 protein concentration was determined from the standard protein graphic using the optical densities of the samples[32].

[2] = test system: MCF-7 cells; assay: Rhodamine-123 mitochondrial membrane potential assay, MCF-7; assay type: cell-based, human; settings: 24 h
Method: [Worded in the source for another cell line; this cell line is reported under the same test.] Mitochondrial membrane potential changes (ΔΨm) were determined by flow cytometry using rhodamine-123 (green-fluorescent dye)[32]. MIA PaCa-2 pancreatic cancer cells (1 × 10^6 cells/well) were exposed to the isolated compound (5 µM) for 24 h. Further, rhodamine-123 (200 nM) was added to the cells, which were kept in dark for 35 min. The cells were further centrifuged and the pellet was washed with phosphate buffered saline (1 ml). The intensity of fluorescence in the cells represented the mitochondrial membrane potential change (ΔΨm), which was measured using a flow cytometer.

[3] = test system: HL-60 cancer cells; assay: Quantification of apoptosis (Annexin V-PI), HL-60; assay type: cell-based, human; settings: HL-60 cells
Excerpt: Apoptotic population of cancer cells was quantified by Annexin V-propidium iodide (PI) staining technique (Abcam, Cambridge, MA, USA) using a flow cytometer as per published technique.

[4] = test system: caspase-3; assay: Caspase-3 colorimetric assay, HL-60; assay type: cell-based, human; settings: HL-60 cells
Method: (§1) Caspases-3, -8 and -9 assays were measured according to manufacturer’s instructions using a caspase colorimetric protease kit (Abcam, Cambridge, MA, USA). Cells were treated with compounds for 48 h. The cells were lysed by the addition of 50 μL of chilled cell lysis buffer and incubated on ice for 10 min. The resulting cell lysate was centrifuged for 1 min at 10,000 g, and the supernatant was collected. The cell lysate containing […] of protein was incubated with […] of 4 mmol/L pNA-conjugated substrates (DEVD-pNA, IETD-pNA and LEHD-pNA; substrates for caspase-3, -8 and -9, respectively) at 37 °C for 3 h. The amount of pNA released was measured at 405 nm using an ELISA microplate reader (Bio rad). The caspases activity was expressed as fold difference, [33].

[5] = test system: caspase-9; assay: Caspase-9 colorimetric assay, MCF-7; assay type: cell-based, human; settings: MCF-7 cells
Method: as §1

[6] = test system: caspase-8; assay: Caspase-8 colorimetric assay, MCF-7; assay type: cell-based, human; settings: MCF-7 cells; data not showed
Method: as §1

[7] = test system: MIA PaCa-2 pancreatic cancer cells; assay: MTT antiproliferative assay, MIA PaCa-2; assay type: cell-based; settings: Homo sapiens, MIA PaCa-2; MTT assay; cancer cell line; mean of three independent experiments ± S.E.M.; read-out: IC50 MIA PaCa-2 Pancreatic
[8] = test system: HL-60 cells; assay: Cell cycle analysis (PI, flow cytometry), HL-60; assay type: cell-based, human; settings: 24 h
Method: Cancer cells (1 × 10^6/ml) were treated with different concentrations of compound (5 and10 µM) for 24 h, fixed in cold 70% alcohol in PBS, washed, digested with DNase free RNase (400 µg/mL) at 37 °C for 45 min and stained with propidium iodide (10 µg/ml). Cells were analyzed for PI-DNA fluorescence by flow cytometerically using FACS CALIBUR (Becton Dickinson, Franklin Lakes, New Jersey, USA)[28]–[30]. The fluorescence intensity of subG0/GI cell fraction represents the dead cell population.

[9] = test system: caspase-9; assay: Caspase-9 colorimetric assay, HL-60; assay type: cell-based, human; settings: HL-60 cells
Method: as §1

[10] = test system: cytosolic cytochrome c; assay: Cytosolic cytochrome c estimation (ELISA), MCF-7; assay type: cell-based, human; settings: MCF-7 cells; 5, 10 µM
Method: Cells were collected by centrifugation at 600 g for 5 min at 4 °C. The cell pellets were washed once with ice-cold PBS and resuspended in cytosol extraction buffer (20 mM Hepes-KOH, pH 7.5, 10 mM KCl, 1.5 mM MgCl2, 1 mM sodium EDTA, 1 mM sodium EGTA, 1 mM dithiothreitol and 0.1 mM PMSF) containing 250 mM sucrose on ice for 10 min. The cells were homogenized with the grinder on ice. Further, the homogenates were centrifuged at 700 g for 10 min at 4 °C. The supernatants were centrifuged at 10,000 × g for 30 min at 4 °C. Supernatant was collected as cytosolic fraction.
Cytosolic cytochrome c levels were determined using quantitative sandwich enzyme immunoassay using microplate reader. Sample or standard (100 μL) was added into each well and incubated for 2 h at room temperature. The wells were washed several times with wash buffer. The plate was inverted and cleaned with paper toweling. Cytochrome c conjugate (200 μL) was added into each well and incubated for 2 h at room temperature. Wells were washed several times with wash buffer. Substrate solution (200 μL) was added into each well and incubated for 30 min at room temperature. Finally, stop solution (50 μL) was added into wells. The optical density (absorbance) of each well was determined using microplate reader at a 450 nm wavelength.

[11] = test system: MCF-10A mammary epithelial cells; assay: MTT assay on normal MCF-10A cells; assay type: cell-based; settings: Homo sapiens, MTT assay, normal cells, 48 h, read-out: IC50 MCF-10A Breast (normal cell line)
[12] = test system: HL-60 leukemia cells; assay: MTT antiproliferative assay, HL-60; assay type: cell-based, human
[13] = test system: MCF-7 breast cancer cells; assay: MTT antiproliferative assay, MCF-7; assay type: cell-based; settings: Homo sapiens, MCF7; MTT assay; cancer cell line; mean of three independent experiments ± S.E.M.; read-out: IC50 MCF-7 Breast
[14] = test system: human peripheral blood mononuclear cells (PBMC); assay: MTT assay on normal PBMC; assay type: cell-based; settings: MTT assay, normal cells, 48 h, read-out: IC50 PBMC (normal cells)

COc1cc(CO)ccc1OC1OC(COC(=O)c2ccc(F)cc2)C(O)C(O)C1O (stereo not shown) [Compound 9f, (6-(4-(hydroxymethyl)-2-methoxyphenoxy)-tetrahydro-3,4,5-trihydroxy-2H-pyran-2-yl)methyl 4-fluorobenzoate]
effect on Bcl-2 levels [1]: dose dependent inhibition of Bcl-2 | mitochondria membrane potential loss ([2]; 5 µM): 41.33 ± 1.43% | mitochondria membrane potential loss ([2]; 10 µM): 52.67 ± 2.33% | apoptotic cell population [3]: increase in the early apoptotic to late apoptotic cells in a dose-dependent fashion | effect on caspase-3 activity [4]: enhanced caspase-3 and -9 activities | effect on caspase-9 activity [5]: enhanced caspase-3 and -9 activities | effect on caspase-8 activity [6]: did not show considerable effect | IC50 [7]: 12.9 ± 0.52 µM | effect on cell cycle distribution [8]: cell cycle arrest at G0/G1 phase | effect on caspase-9 activity [9]: enhanced caspase-3 and -9 activities | effect on cytosolic cytochrome c levels [10]: dose dependently increased | IC50 [11]: > 100 µM | anti-proliferative effect at 24 h ([12]; HL-60 cells, 24 h, versus camptothecin (positive control)): better antiproliferative effect than camptothecin | IC50 ([12]; Homo sapiens, HL-60, MTT assay, cancer cell line, mean of three independent experiments ± S.E.M., read-out: IC50 HL-60 Leukemia): 4.43 ± 0.35 µM | IC50 [13]: 6.13 ± 0.64 µM | IC50 [14]: > 100 µM

— article PMC5559490, “Synthesis of Saccharumoside-B analogue with potential of antiproliferative and pro-apoptotic activities” (Scientific Reports, 2017)
